Data on 10 compounds can be found in patent publication US8188085B2, “Antifungal agents” (Merck Sharp & Dohme Corp., priority 2008, dated 2012).

Structures can show the parent of a compound that is named as a salt.

As a reminder, the IC50 is the concentration needed to halve the response being measured.

The target of one assay is glucan synthase (GS) prepared from Candida albicans MY1055 (Candida albicans, UniProt O13428). Nature of the assay: Glucan synthase inhibition (polymerization assay, 96-well). In kind it is biochemical.
Chain of glucan synthase (GS) prepared from Candida albicans MY1055 (O13428 1-1897): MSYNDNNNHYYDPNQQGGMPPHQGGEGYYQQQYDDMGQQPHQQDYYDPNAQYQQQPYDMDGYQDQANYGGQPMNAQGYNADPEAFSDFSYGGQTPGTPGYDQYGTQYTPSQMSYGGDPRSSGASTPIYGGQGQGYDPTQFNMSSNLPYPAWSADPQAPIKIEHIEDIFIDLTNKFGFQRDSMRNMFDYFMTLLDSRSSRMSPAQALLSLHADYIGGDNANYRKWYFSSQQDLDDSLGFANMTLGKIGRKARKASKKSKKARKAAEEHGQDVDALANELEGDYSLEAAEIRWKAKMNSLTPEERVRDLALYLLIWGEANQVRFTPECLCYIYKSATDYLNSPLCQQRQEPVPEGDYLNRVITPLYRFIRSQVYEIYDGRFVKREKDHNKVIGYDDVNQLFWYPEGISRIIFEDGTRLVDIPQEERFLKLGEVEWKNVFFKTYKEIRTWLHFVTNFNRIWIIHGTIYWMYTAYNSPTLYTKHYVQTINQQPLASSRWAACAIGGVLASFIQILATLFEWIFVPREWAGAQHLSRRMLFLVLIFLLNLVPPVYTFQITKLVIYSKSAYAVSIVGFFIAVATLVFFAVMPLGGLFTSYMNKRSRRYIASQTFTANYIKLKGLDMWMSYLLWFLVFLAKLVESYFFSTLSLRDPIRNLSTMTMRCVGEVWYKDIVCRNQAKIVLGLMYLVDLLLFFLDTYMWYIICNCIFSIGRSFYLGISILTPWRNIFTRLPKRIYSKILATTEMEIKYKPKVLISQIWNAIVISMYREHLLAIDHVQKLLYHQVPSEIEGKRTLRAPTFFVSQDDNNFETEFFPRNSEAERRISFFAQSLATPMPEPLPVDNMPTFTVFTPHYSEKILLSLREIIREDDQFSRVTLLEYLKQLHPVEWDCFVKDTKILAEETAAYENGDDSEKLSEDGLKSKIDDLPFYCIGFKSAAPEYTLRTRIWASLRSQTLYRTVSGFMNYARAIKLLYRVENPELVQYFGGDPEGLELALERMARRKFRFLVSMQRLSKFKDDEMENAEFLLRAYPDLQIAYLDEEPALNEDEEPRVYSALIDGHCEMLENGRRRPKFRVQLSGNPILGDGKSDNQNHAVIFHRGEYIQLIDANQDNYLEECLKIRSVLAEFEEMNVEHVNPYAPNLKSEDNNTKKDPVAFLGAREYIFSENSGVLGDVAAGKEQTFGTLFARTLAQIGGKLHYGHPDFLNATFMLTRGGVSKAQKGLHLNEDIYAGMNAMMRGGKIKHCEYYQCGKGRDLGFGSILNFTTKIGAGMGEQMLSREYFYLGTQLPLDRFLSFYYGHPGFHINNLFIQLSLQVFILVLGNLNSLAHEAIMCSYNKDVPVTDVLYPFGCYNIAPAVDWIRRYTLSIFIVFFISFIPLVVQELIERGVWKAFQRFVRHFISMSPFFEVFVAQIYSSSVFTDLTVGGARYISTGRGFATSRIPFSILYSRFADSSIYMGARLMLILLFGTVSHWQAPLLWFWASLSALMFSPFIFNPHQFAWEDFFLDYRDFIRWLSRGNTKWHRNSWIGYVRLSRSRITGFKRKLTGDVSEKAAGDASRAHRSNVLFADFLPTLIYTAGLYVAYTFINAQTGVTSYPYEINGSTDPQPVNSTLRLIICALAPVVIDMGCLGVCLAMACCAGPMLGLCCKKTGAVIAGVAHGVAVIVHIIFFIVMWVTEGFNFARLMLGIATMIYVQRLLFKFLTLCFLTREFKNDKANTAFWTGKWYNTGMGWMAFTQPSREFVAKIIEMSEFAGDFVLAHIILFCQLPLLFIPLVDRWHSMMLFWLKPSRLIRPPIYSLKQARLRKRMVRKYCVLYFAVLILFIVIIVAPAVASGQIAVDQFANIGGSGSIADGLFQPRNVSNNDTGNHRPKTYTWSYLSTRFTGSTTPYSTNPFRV
Settings: not given
The method, then: The in vitro evaluation of glucan synthase inhibitory activity of compounds was measured in a polymerization assay in 96-well format. Each well contained 100 μL of ^3H-UDPG at 0.5 mM (6000 to 8000 dpm/nmol), 50 mM HEPES pH 7.5 (Sigma), 10% w/v glycerol (Sigma), 1.5 mg/mL bovine serum albumin (Sigma A 9647. Lot 44H0190), 25 mM KF (Fisher), 1 mM EDTA (Gibco ULTRAPURE), 25 μM GTP-γ-S, enzyme sufficient to give 3 to 6 nmoles incorporation during the 60 min incubation at 22° C., and test compound added from wells in 3-fold serial dilutions in 100% DMSO (1 μL/well). The reaction was stopped by the addition of 100 μL of 20% trichloroacetic acid. Plates were chilled for a minimum of 10 min, and precipitated glucan collected by filtration on GF/C plates (Packard UNIFILTER®-96), washed with 5 cycles of water (about 1 mL/well each cycle) using a Packard FILTERMATE HARVESTER. 40 μL/well scintillation fluid (Packard ULTIMA GOLD TM-XR) was added and the sealed plates counted in a WALLAC BETA counter in top-counting mode at an efficiency of approximately 40%.
Stock solutions were stored at 10 mg/mL in DMSO at −20° C. For each new enzyme preparation, the initial titration performed started at 1 mg/mL, which was prepared by making a 10-fold dilution in DMSO (5 μL to 50 μL). 40 μL of this stock was placed in column 12 of a round-bottomed 96-well microtiter plate. 40 μL DMSO was added to columns 1 to 11 in the same row and ten 3-fold serial dilutions performed, by transferring 20 μL from column 12 to column 11 etc., with 4 mixings before each transfer. No test compound was transferred to from column 2 to column 1. Duplicate aliquots of 1 μL of all 12 dilutions were then transferred to the side walls of a 96-well Bioblock 1.1 mL plate (Fisher brand) to create two rows.
Graphs of the primary data were created in PRISM software (the average of two determinations) using PRISM's curve fitting program (sigmoidal dose response non-linear regression). The amount of compound required to inhibit glucan synthase activity by 50% in this assay (IC50−ng/mL) was calculated.
Routine analysis was performed with glucan synthase (GS) prepared from Candida albicans MY1055 by the following procedure: MY1055 was grown in 10 liters YPD medium (10 g yeast extract, 20 g tryptone, 20 g glucose per liter) with vigorous shaking at 30° C., to early stationary phase. Cells were harvested by centrifugation, the pellet was washed and frozen at −70° C. until breakage. Thawed pellets were shaken with an equal volume of breakage buffer (50 mM HEPES pH 7.4, 10% glycerol, 1 mM EDTA, 1 mM PMSF, 1 mM DTT) and 4 times their weight of 0.5 mm acid washed glass beads for 2 hours at 4° C. Extent of breakage was assessed visually at 40× magnification. After low speed centrifugation to remove cell debris, the supernatant was centrifuged at 100,000×g for 60 min. to separate membranes plus ribosomes from cytoplasmic components. Membranes were further washed two additional times with breakage buffer using the same centrifugation conditions and finally suspended in breakage buffer at 25 to 30 mg/mL protein (Biorad) for storage at −70° C. Extraction of GS activity from membranes was performed at a protein concentration of 5 mg/mL in extraction buffer (50 mM NaPO4 pH 7.5, 0.1 M KCl, 0.1M Na citrate, 20% glycerol, 5 μM GTP-γ-S, 1 mM DTT, 1 mM PMSF, 3 μg/mL pepstatin) plus 0.25% W1 by gentle mixing at 4° C. for 60 min, followed by centrifugation at 100,000×g for 60 min. After centrifugation, clear supernatant was removed from a pellet consisting of a hard layer usually with small amounts of gelatinous unextracted membranes above it.
Trapping was initiated immediately by 5-fold dilution in trapping buffer (50 mM HEPES pH 7.5, 10 mM KF, 1 mM EDTA, 2 mg/mL BSA) plus 2.5 mM UDPG and 10 μM GTP-γ-S. After incubation at 25° C. for 60 to 90 minutes, glucan was harvested by low speed centrifugation (3,000×g, 10 min). […]
For `CC(C)[C@@H](C)[C@@]1(C)CC[C@]2(C)[C@H]3CC[C@@H]4[C@@]5(COC[C@@]4(C)[C@@H](OC[C@](C)(N)C(C)(C)C)[C@H](n4ncnc4-c4ccc[n+](C)c4)C5)C3=CC[C@@]2(C)[C@@H]1C(=O)O` [Example 264, (1S,4aR,6aS,7R,8R,10aR,10bR,12aR,14R,15R)-15-[[(2R)-2-amino-2,3,3-trimethylbutyl]oxy]-8-[(1R)-1,2-dimethylpropyl]-14-[5-(1-methyl-3-pyridiniumyl)-1H-1,2,4-triazol-1-yl]-1,6,6a,7,8,9,10,10a,10b,11,12,12a-dodecahydro-1,6a,8,10a-tetramethyl-4H-1,4a-propano-2H-phenanthro[1,2-c]pyran-7-carboxylic acid trifluoroacetate], the IC50 is 0.403 nM.

The same assay, now with this note: GS from C. albicans MY1055; 60 min incubation at 22° C.; read-out: Candida Albicans GS IC50 (converted).
Turning to `CC(C)[C@@H](C)[C@@]1(C)CC[C@]2(C)[C@H]3CC[C@@H]4[C@@]5(COC[C@@]4(C)[C@@H](OC[C@](C)(N)C(C)C)[C@H](n4ncnc4-c4ccc(O)nc4)C5)C3=CC[C@@]2(C)[C@@H]1C(=O)O` [Example 199, (1S,4aR,6aS,7R,8R,10aR,10bR,12aR,14R,15R)-15-[[(2R)-2-amino-2,3-dimethylbutyl]oxy]-8-[(1R)-1,2-dimethylpropyl]-14-[5-(6-hydroxy-3-pyridinyl)-1H-1,2,4-triazol-1-yl]-1,6,6a,7,8,9,10,10a,10b,11,12,12a-dodecahydro-1,6a,8,10a-tetramethyl-4H-1,4a-propano-2H-phenanthro[1,2-c]pyran-7-carboxylic acid], the IC50 was 0.546 nM.

In the case of `CN[C@@](C)(CO[C@H]1[C@H](n2ncnc2C(=O)NC2CC2)C[C@@]23COC[C@]1(C)[C@@H]2CC[C@H]1C3=CC[C@@]2(C)[C@H](C(=O)O)[C@@](C)([C@H](C)C(C)C)CC[C@]12C)C(C)C` [Example 64, (1S,4aR,6aS,7R,8R,10aR,10bR,12aR,14R,15R)-14-[5-[(cyclopropylamino)carbonyl]-1H-1,2,4-triazol-1-yl]-15-[[(2R)-2,3-dimethyl-2-(methylamino)butyl]oxy]-8-[(1R)-1,2-dimethylpropyl]-1,6,6a,7,8,9,10,10a,10b,11,12,12a-dodecahydro-1,6a,8,10a-tetramethyl-4H-1,4a-propano-2H-phenanthro[1,2-c]pyran-7-carboxylic acid], the IC50 is 13.6 nM.

Regarding `CC(C)[C@@H](C)[C@@]1(C)CC[C@]2(C)[C@H]3CC[C@@H]4[C@@]5(COC[C@@]4(C)[C@@H](OC[C@](C)(N)C(C)(C)C)[C@H](n4ncnc4-c4ccc(C(=O)O)cc4)C5)C3=CC[C@@]2(C)[C@@H]1C(=O)O` [Example 235, (1S,4aR,6aS,7R,8R,10aR,10bR,12aR,14R,15R)-15-[[(2R)-2-amino-2,3,3-trimethylbutyl]oxy]-14-[5-(4-carboxyphenyl)-1H-1,2,4-triazol-1-yl]-8-[(1R)-1,2-dimethylpropyl]-1,6,6a,7,8,9,10,10a,10b,11,12,12a-dodecahydro-1,6a,8,10a-tetramethyl-4H-1,4a-propano-2H-phenanthro[1,2-c]pyran-7-carboxylic acid], the IC50 was 6.47 nM.

Regarding `CC(C)[C@@H](C)[C@@]1(C)CC[C@]2(C)[C@H]3CC[C@@H]4[C@@]5(COC[C@@]4(C)[C@@H](OC[C@](C)(N)C(C)C)[C@H](n4ncnc4-c4cncs4)C5)C3=CC[C@@]2(C)[C@@H]1C(=O)O` [Example 193, (1S,4aR,6aS,7R,8R,10aR,10bR,12aR,14R,15R)-15-[[(2R)-2-amino-2,3-dimethylbutyl]oxy]-8-[(1R)-1,2-dimethylpropyl]-14-[5-(5-thiazolyl)-1H-1,2,4-triazol-1-yl]-1,6,6a,7,8,9,10,10a,10b,11,12,12a-dodecahydro-1,6a,8,10a-tetramethyl-4H-1,4a-propano-2H-phenanthro[1,2-c]pyran-7-carboxylic acid], the IC50 was 4.15 nM.

For `CC(C)[C@@H](C)[C@@]1(C)CC[C@]2(C)[C@H]3CC[C@@H]4[C@@]5(COC[C@@]4(C)[C@@H](OC[C@H](N)C(C)(C)C)[C@H](n4cnc(N)n4)C5)C3=CC[C@@]2(C)[C@@H]1C(=O)O` [Example 24, (1S,4aR,6aS,7R,8R,10aR,10bR,12aR,14R,15R)-15-[[(2R)-2-amino-3,3-dimethylbutyl]oxy]-14-(3-amino-1H-1,2,4-triazol-1-yl)-8-[(1R)-1,2-dimethylpropyl]-1,6,6a,7,8,9,10,10a,10b,11,12,12a-dodecahydro-1,6a,8,10a-tetramethyl-4H-1,4a-propano-2H-phenanthro[1,2-c]pyran-7-carboxylic acid], the IC50 is 16.8 nM.

For `CC(C)[C@@H](C)[C@@]1(C)CC[C@]2(C)[C@H]3CC[C@@H]4[C@@]5(COC[C@@]4(C)[C@@H](OC[C@](C)(N)C(C)(C)C)[C@H](n4ncnc4-c4ccc(CN)cc4)C5)C3=CC[C@@]2(C)[C@@H]1C(=O)O` [Example 178, (1S,4aR,6aS,7R,8R,10aR,10bR,12aR,14R,15R)-14-[5-[4-(aminomethyl)phenyl]-1H-1,2,4-triazol-1-yl]-15-[[(2R)-2-amino-2,3,3-trimethylbutyl]oxy]-8-[(1R)-1,2-dimethylpropyl]-1,6,6a,7,8,9,10,10a,10b,11,12,12a-dodecahydro-1,6a,8,10a-tetramethyl-4H-1,4a-propano-2H-phenanthro[1,2-c]pyran-7-carboxylic acid], the IC50 was 1.06 nM.

With `CC(C)[C@@H](C)[C@@]1(C)CC[C@]2(C)[C@H]3CC[C@@H]4[C@@]5(COC[C@@]4(C)[C@@H](OC[C@](C)(C(C)C)N(C)C)[C@H](n4cnc(N)n4)C5)C3=CC[C@@]2(C)[C@@H]1C(=O)O` [Example 27, (1S,4aR,6aS,7R,8R,10aR,10bR,12aR,14R,15R)-14-(3-amino-1H-1,2,4-triazol-1-yl)-15-[[(2S)-2-(dimethylamino)-2,3-dimethylbutyl]oxy]-8-[(1R)-1,2-dimethylpropyl]-1,6,6a,7,8,9,10,10a,10b,11,12,12a-dodecahydro-1,6a,8,10a-tetramethyl-4H-1,4a-propano-2H-phenanthro[1,2-c]pyran-7-carboxylic acid], the IC50 was 16.1 nM.

As for `CN[C@@](C)(CO[C@H]1[C@H](n2ncnc2C(=O)NCCF)C[C@@]23COC[C@]1(C)[C@@H]2CC[C@H]1C3=CC[C@@]2(C)[C@H](C(=O)O)[C@@](C)([C@H](C)C(C)C)CC[C@]12C)C(C)C` [Example 77, (1S,4aR,6aS,7R,8R,10aR,10bR,12aR,14R,15R)-15-[[(2R)-2,3-dimethyl-2-(methylamino)butyl]oxy]-8-[(1R)-1,2-dimethylpropyl]-14-[5-[[(2-fluoroethyl)amino]carbonyl]-1H-1,2,4-triazol-1-yl]-1,6,6a,7,8,9,10,10a,10b,11,12,12a-dodecahydro-1,6a,8,10a-tetramethyl-4H-1,4a-propano-2H-phenanthro[1,2-c]pyran-7-carboxylic acid], the IC50 is 8.09 nM.

As for `CC(C)[C@@H](C)[C@@]1(C)CC[C@]2(C)[C@H]3CC[C@@H]4[C@@]5(COC[C@@]4(C)[C@@H](OC[C@](C)(N)C(C)(C)C)[C@H](n4ncnc4-c4ccc(C(N)=O)nc4)C5)C3=CC[C@@]2(C)[C@@H]1C(=O)O` [Example 221, (1S,4aR,6aS,7R,8R,10aR,10bR,12aR,14R,15R)-14-[5-[6-(aminocarbonyl)-3-pyridinyl]-1H-1,2,4-triazol-1-yl]-15-[[(2R)-2-amino-2,3,3-trimethylbutyl]oxy]-8-[(1R)-1,2-dimethylpropyl]-1,6,6a,7,8,9,10,10a,10b,11,12,12a-dodecahydro-1,6a,8,10a-tetramethyl-4H-1,4a-propano-2H-phenanthro[1,2-c]pyran-7-carboxylic acid], the IC50 was 3.88 nM.
